Broadly, the IC50 is the concentration that inhibits the measured activity by half.

In assay [1] the test system is IFNγ stimulated STAT1 phosphorylation on Tyr701 (JAK1/2). The assay is described as follows: JAK1/2 phospho-STAT1 cellular target modulation assay, IFNγ stimulated human PBMC. Type of assay: cell-based. The settings on record: IFNγ 10 ng/ml, read-out: Infγ-STAT1 IC50. An excerpt: (§1) Target modulation was based upon the ability of a compound to inhibit JAK isoform specific phosphorylation of selected substrates. IL-2 stimulated STAT5 phosphorylation on Tyr694 was used to assess JAK1/3 compound selectivity. GM-CSF stimulated STAT5 phosphorylation on Tyr694 was used to assess JAK2 compound selectivity. IFNγ stimulated STAT1 phosphorylation on Tyr701 was used to assess JAK1/2 compound selectivity. For all three assays, human PBMC from frozen stocks were thawed, pelleted, resuspended in complete media (90% RPMI, 10% heat inactivated FBS, 10 mM HEPES, 47 μM 2-ME, pen/strep) and placed in wells of a 96 well V-bottom plate at 200,000 per well in 120 μl complete media. Compounds were added as 15 μl per well of 10× working stock solutions in complete media with 1% DMSO (or medium with 1% DMSO for controls) and placed on a plate shaker in a 37° C. incubator with 5% CO2 for 1 hour with gentle shaking (setting of 3). Stimulation used the addition of soluble cytokines. For the JAK1/3 phospho-STAT5 assay, 15 μl of 10× working stock recombinant human IL-2 was added to a final concentration of 25 ng/ml. For the JAK2 phospho-STAT5 assay, 15 μl of 10× working stock recombinant human GM-CSF was added to a final concentration of 5 ng/ml. For the JAK1/2 phospho-STAT1 assay, 15 μl of 10× working stock of recombinant human IFNγ was added to a final concentration of 10 ng/ml. Plates were then placed back on the plate shaker in the incubator for an additional 5, 5 and 10 minutes respectively upon which the plates were removed from the incubator, sealed with a plate sealer and the cells pelleted at 400×g for 5 minutes. After pelleting, the media was removed by aspiration and the cells were lysed in ELISA specific cell lysis buffer. The levels of phospho-STAT5 were determined using a Phospho (Tyr694)/Total STAT5a,b Whole Cell Lysate kit from Meso Scale Discovery. Levels of phospho-STAT1 were determined using a CST-PathScan Phospho-STAT1 (Tyr701) Sandwich ELISA kit.

Assay [2] has as its target JAK1 (Homo sapiens (Human), UniProt P23458). The assay is described as follows: JAK1 enzyme activity assay (Z-lyte, Thermo Fisher Selectscreen). As to conditions: 2 μM Tyr 06 peptide, read-out: JAK1 Inhibition IC50. The assay is classed as biochemical. Here is the method:
The inhibitory potency of candidate compounds of JAK1 done at Thermo Fisher Scientific in their Selectscreen using a Z-lyte assay. The 2×JAK1/Tyr 06 mixture is prepared in 50 mM HEPES pH 6.5, 0.01% BRIJ-35, 10 mM MgCl2, 1 mM EGTA, 0.02% NaN3. The final 10 μL of the Kinase Reaction consists of 21.2-91.5 ng JAK1 and 2 μM Tyr 06 in 50 mM HEPES pH 7.0, 0.01% BRIJ-35, 10 mM MgCl2, 1 mM EGTA, 0.01% NaN3. After the 1 hour Kinase Reaction incubation, 5 μL of a 1:128 dilution of Development Reagent is added.
Background signal is defined in the absence of enzyme and uninhibited signal is defined in the presence of vehicle (2% DMSO) alone. Compounds were evaluated in an 11 point dose-response ranging from […] to 0.34 nM. IC50 values of compounds are determined using a 4 parameter logistical fit of emission ratio as a function of the concentration of compound.

Assay [3] has as its system IL-2 stimulated STAT5 phosphorylation on Tyr694 (JAK1/3). The assay is described as follows: JAK1/3 phospho-STAT5 cellular target modulation assay, IL-2 stimulated human PBMC. Type of assay: cell-based. The settings on record: IL-2 25 ng/ml, read-out: IL2-STAT5 Inhibition IC50.
Source text: as §1

For assay [4], the target named is JAK3 (a.a. 781-1124) (Homo sapiens (Human), UniProt P52333). Put plainly: JAK3 enzyme activity assay (SRCtide phosphorylation, Caliper). As to conditions: 2.5 nM JAK3, 1 μM SRCtide, 1 uM ATP; read-out: JAK3 Inhibition IC50. The assay is classed as biochemical. Here is the method: The activity of JAK3 (a.a. 781-1124, ThermoFisher) was quantified by measuring the phosphorylation of SRCtide (FAM-GEEPLYWSFPAKKK-NH2). Kinase reactions were run in a 384-well Greiner plate with 2% final DMSO concentration under the buffer conditions of 20 mM HEPES, pH 7.5, 10 mM MgCl2, 0.01% BSA, and 0.0005% Tween-20. The kinase reaction components were 2.5 nM JAK3, 1 μM SRCtide peptide and 1 uM ATP. Examples were tested in dose-response starting at 2 μM (11 concentrations, 3-fold serial dilution, duplicate reactions). The reactions were incubated at room temperature for 40 minutes, then stopped by adding a 1:1 volume of 30 mM EDTA in 20 mM HEPES, pH 7.5 (15 mM EDTA final). After the reaction was stopped, the phosphorylated and unphosphorylated peptides were separated and quantified using a Caliper LC3000/EZ-Reader system and HTS Well Analyzer Software (Caliper, A PerkinElmer Company, Hopkinton, Mass.). GraFit (Erithacus Software Ltd., Horley, U.K.) was used to calculate inhibitor potency by fitting dose-response data to the 4-parameter logistical IC50 equation.
Sequence of JAK3 (a.a. 781-1124) (P52333 781-1124): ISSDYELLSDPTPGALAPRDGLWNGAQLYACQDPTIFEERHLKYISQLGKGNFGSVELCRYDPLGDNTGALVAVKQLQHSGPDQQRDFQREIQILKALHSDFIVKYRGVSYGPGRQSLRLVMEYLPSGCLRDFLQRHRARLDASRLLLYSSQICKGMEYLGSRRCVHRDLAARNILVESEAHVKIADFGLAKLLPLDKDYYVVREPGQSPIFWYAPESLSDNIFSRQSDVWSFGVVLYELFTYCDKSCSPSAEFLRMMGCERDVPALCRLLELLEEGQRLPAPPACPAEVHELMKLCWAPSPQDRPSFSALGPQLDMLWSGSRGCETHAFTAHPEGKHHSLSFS

Sequence of JAK1 (P23458 whole entry): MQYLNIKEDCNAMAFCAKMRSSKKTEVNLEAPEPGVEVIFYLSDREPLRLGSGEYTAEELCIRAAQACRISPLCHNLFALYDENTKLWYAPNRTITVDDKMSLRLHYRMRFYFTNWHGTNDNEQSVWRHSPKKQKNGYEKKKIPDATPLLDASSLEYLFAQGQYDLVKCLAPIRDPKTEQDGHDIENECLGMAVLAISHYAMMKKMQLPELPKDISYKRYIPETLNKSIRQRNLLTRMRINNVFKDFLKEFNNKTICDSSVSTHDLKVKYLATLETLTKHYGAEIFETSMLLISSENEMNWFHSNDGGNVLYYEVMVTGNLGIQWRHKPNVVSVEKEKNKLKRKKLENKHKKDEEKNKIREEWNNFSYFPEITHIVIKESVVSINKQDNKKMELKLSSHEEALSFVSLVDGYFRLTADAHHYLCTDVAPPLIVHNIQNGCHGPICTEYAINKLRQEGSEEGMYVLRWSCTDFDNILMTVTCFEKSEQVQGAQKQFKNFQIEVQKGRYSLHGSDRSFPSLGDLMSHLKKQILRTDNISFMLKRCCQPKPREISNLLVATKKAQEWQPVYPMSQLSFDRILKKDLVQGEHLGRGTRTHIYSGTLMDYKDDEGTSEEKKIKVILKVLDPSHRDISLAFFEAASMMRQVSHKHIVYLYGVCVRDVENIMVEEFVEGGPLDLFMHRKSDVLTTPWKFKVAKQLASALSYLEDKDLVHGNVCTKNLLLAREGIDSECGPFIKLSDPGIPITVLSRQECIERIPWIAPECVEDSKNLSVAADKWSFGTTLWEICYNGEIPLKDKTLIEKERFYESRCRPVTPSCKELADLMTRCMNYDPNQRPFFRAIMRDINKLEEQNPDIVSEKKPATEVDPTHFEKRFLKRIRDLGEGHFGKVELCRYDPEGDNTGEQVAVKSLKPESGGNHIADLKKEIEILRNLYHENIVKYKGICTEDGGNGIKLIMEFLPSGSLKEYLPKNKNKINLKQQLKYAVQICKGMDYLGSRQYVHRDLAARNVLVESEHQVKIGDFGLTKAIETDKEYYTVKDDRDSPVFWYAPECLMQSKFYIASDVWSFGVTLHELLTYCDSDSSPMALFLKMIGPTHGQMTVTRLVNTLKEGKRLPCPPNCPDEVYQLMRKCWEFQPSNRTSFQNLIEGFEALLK

On to `CCCOC(=O)c1cnc2[nH]ccc2c1-c1cnn([C@H](CC#N)C2CCCC2)c1` [Example 20, propyl (R)-4-(1-(2-cyano-1-cyclopentylethyl)-1H-pyrazol-4-yl)-1H-pyrrolo[2,3-b]pyridine-5-carboxylate], for which the IC50 is 0.1 to 1 µM in assay [1], not above 0.01 µM in assay [2], not above 0.1 µM in assay [3] and 0.01 to 0.1 µM in assay [4].
For `CCOC(=O)c1cnc2[nH]ccc2c1-c1cnn([C@@H](CC#N)C2CCCC2)c1` (single isomer, unassigned; stereoisomer 2) [Example 17, ethyl 4-(1-(2-cyano-1-cyclopentylethyl)-1H-pyrazol-4-yl)-1H-pyrrolo[2,3-b]pyridine-5-carboxylate stereoisomer 2], the IC50 in assay [1] fell in the range of 0.1 to 1 µM; in assay [2], 0.01 to 0.1 µM; in assay [3], 0.1 to 1 µM; in assay [4], 0.01 to 0.1 µM.
As to `CCOC(=O)c1cnc2[nH]ccc2c1-c1cnn(C2(CC#N)CN(S(=O)(=O)CC)C2)c1` [Example 9, ethyl 4-(1-(3-(cyanomethyl)-1-(ethylsulfonyl)azetidin-3-yl)-1H-pyrazol-4-yl)-1H-pyrrolo[2,3b]pyridine-5-carboxylate], the IC50 in assay [1] was 0.1 to 1 µM; in assay [2], not above 0.01 µM; in assay [3], not above 0.1 µM; in assay [4] it was 0.01 to 0.1 µM.
With `CCOC(=O)c1cnc2[nH]ccc2c1-c1cnn(C(CC#N)C2CCCC2)c1` (racemic) [Example 1, ethyl 4-(1-(2-cyano-1-cyclopentylethyl)-1H-pyrazol-4-yl)-1H-pyrrolo[2,3-b]pyridine-5-carboxylate], the IC50 in assay [1] is 0.1 to 1 µM; in assay [2] it was not above 0.01 µM; in assay [3] it was 0.1 to 1 µM; in assay [4], 0.01 to 0.1 µM.
`CC(C)OC(=O)c1cnc2[nH]ccc2c1-c1cnn([C@@H](CC#N)C2CCCC2)c1` (single isomer, unassigned; enantiomer 2) [Example 19, isopropyl 4-(1-(2-cyano-1-cyclopentylethyl)-1H-pyrazol-4-yl)-1H-pyrrolo[2,3-b]pyridine-5-carboxylate, enantiomer 2]: the IC50 in assay [1] is 0.1 to 1 µM; in assay [2] it was 0.01 to 0.1 µM; in assay [3] it was not above 0.1 µM; in assay [4] it was 0.01 to 0.1 µM.
As to `CC(C)OC(=O)c1cnc2[nH]ccc2c1-c1cnn([C@H](CC#N)C2CCCC2)c1` (single isomer, unassigned; enantiomer 1) [Example 18, isopropyl 4-(1-(2-cyano-1-cyclopentylethyl)-1H-pyrazol-4-yl)-1H-pyrrolo[2,3-b]pyridine-5-carboxylate, enantiomer 1], the IC50 in assay [1] was 0.1 to 1 µM; in assay [2], not above 0.01 µM; in assay [3], not above 0.1 µM; in assay [4] it was 0.01 to 0.1 µM.
In the case of `CCOC(=O)c1cnc2[nH]ccc2c1-c1cnn([C@H](CC#N)C2CCCC2)c1` (single isomer, unassigned; stereoisomer 1) [Example 16, ethyl 4-(1-(2-cyano-1-cyclopentylethyl)-1H-pyrazol-4-yl)-1H-pyrrolo[2,3-b]pyridine-5-carboxylate stereoisomer 1], the IC50 in assay [1] is 0.1 to 1 µM; in assay [2], not above 0.01 µM; in assay [3], 0.1 to 1 µM; in assay [4], 0.01 to 0.1 µM.

The record behind these values is patent US10800775B2, “Pyrazolyl pyrrolo[2,3-b]pyrmidine-5-carboxylate analogs and methods of making the same” (ACLARIS THERAPEUTICS, INC., priority 2017, dated 2020).
